Read-outs that look alike come from different tables or passages of the source. Ends that are not written are not given here.
Tests used:
Assay in all cases: FP displacement (competition) of FITC-15 AA CRIPT by library peptide, IC50 and Ki
PSG G335A (PSD-95) = details: for IC50: read-out: IC50 (µM), PSG G335A; for Ki: read-out: Ki (µM), PSG G335A
PSG G322A G335A (PSD-95) = details: for IC50: read-out: IC50 (µM), PSG G322A G335A
PSG G322A (PSD-95) = details: for IC50: read-out: IC50 (µM), PSG G322A; for Ki: read-out: Ki (µM), PSG G322A
[1] = FP displacement of FITC-15 AA CRIPT probe by acetylated PSD library peptide
[2] = FP displacement of FITC-15 AA CRIPT probe by acetylated PSD library peptide (P-13 to P0 plus extra N-terminal Y)
[3] = FP displacement of FITC-15 AA CRIPT probe by PSD library peptide, protein PSG G322A
[4] = read-out: Ki (µM), PSG G322A G335A, FP displacement of FITC-15 AA CRIPT probe by acetylated PSD library peptide
[5] = FP displacement of FITC-15 AA CRIPT probe by PSD library peptide, protein PSG G335A
[6] = FP displacement of FITC-15 AA CRIPT probe by PSD library peptide, protein PSG G322A G335A
[7] = read-out: Ki (µM), PSG G322A G335A, FP displacement of FITC-15 AA CRIPT probe by PSD library peptide, protein PSG G322A G335A

Molecule	IC50 (PSG G335A (PSD-95); [1]) [µM]	Ki (PSG G335A (PSD-95); [1]) [µM]	IC50 (PSG G322A G335A (PSD-95); [2]) [µM]	IC50 (PSG G322A (PSD-95); [1]) [µM]	Ki (PSG G322A (PSD-95); [1]) [µM]	IC50 (PSG G322A (PSD-95); [3]) [µM]	Ki (PSG G322A G335A (PSD-95); [4]) [µM]	IC50 (PSG G322A G335A (PSD-95); [6]) [µM]	Ki (PSG G322A G335A (PSD-95); [7]) [µM]	further results
CC[C@H](C)[C@H](NC(=O)[C@H](CC(=O)O)NC(=O)[C@H](CCC(N)=O)NC(=O)CNC(=O)[C@@H](NC(=O)[C@H](CC(C)C)NC(=O)[C@@H]1CCCN1C(=O)[C@H](Cc1ccc(O)cc1)NC(C)=O)C(C)C)C(=O)N[C@H](C(=O)N[C@@H](CC(=O)O)C(=O)N[C@@H](CC(C)C)C(=O)N[C@@H](CCC(N)=O)C(=O)N[C@H](C(=O)N[C@@H](CCC(=O)O)C(=O)N[C@H](C(=O)O)C(C)C)[C@@H](C)O)[C@@H](C)CC [ADGRB1]	245	87	112	258	112	–	–	–	–	Ki (PSG G322A G335A (PSD-95); FP displacement of 5 nM FITC-15 AA CRIPT by non-labeled acetylated peptide, room temperature, Ki from IC50, PSG G322A G335A): 39 µM
CC[C@H](C)[C@H](NC(=O)[C@H](CCCNC(=N)N)NC(=O)[C@H](CCCNC(=N)N)NC(=O)[C@H](CCC(N)=O)NC(=O)[C@H](CC(N)=O)NC(=O)[C@H](CC(C)C)NC(=O)CNC(=O)[C@H](CO)NC(=O)[C@H](Cc1ccc(O)cc1)NC(=O)[C@H](CC(C)C)NC(=O)[C@H](CC(=O)O)NC(=O)[C@H](CCCNC(=N)N)NC(=O)[C@H](CCC(N)=O)NC(=O)CNC(=O)[C@H](Cc1ccc(O)cc1)NC(C)=O)C(=O)O [CD3E]	–	–	–	–	–	757	–	–	–	Ki (PSG G322A (PSD-95); [3]): 328 µM
CSCC[C@H](NC(=O)[C@H](CC(N)=O)NC(=O)[C@H](CCCCN)NC(=O)[C@H](CC(C)C)NC(=O)[C@@H](NC(=O)[C@H](CC(=O)O)NC(=O)[C@H](Cc1ccc(O)cc1)NC(C)=O)C(C)C)C(=O)N[C@H](C(=O)N[C@@H](CC(=O)O)C(=O)N[C@@H](CCCCN)C(=O)N[C@@H](C)C(=O)N1CCC[C@H]1C(=O)N1CCC[C@H]1C(=O)NCC(=O)N[C@H](C(=O)O)C(C)C)[C@@H](C)O [CK2N1]	–	–	940	824	357	–	325	–	–	–
CC(=O)N[C@@H](Cc1ccc(O)cc1)C(=O)N[C@@H](Cc1ccc(O)cc1)C(=O)N[C@@H](CCC(=O)O)C(=O)N[C@H](C(=O)N[C@@H](CO)C(=O)N[C@@H](Cc1c[nH]cn1)C(=O)N[C@@H](Cc1ccc(O)cc1)C(=O)N1CCC[C@H]1C(=O)N[C@@H](C)C(=O)N[C@@H](CO)C(=O)N1CCC[C@H]1C(=O)N[C@@H](CC(=O)O)C(=O)N[C@@H](CO)C(=O)N[C@@H](Cc1c[nH]c2ccccc12)C(=O)N[C@H](C(=O)O)C(C)C)[C@@H](C)O [CTND2]	–	–	–	–	–	694	–	465	161	IC50 (PSG G335A (PSD-95); [5]): 1020 µM; Ki (PSG G335A (PSD-95); [5]): 364 µM; Ki (PSG G322A (PSD-95); [3]): 301 µM
CC(=O)N[C@@H](Cc1ccc(O)cc1)C(=O)N[C@@H](Cc1ccccc1)C(=O)N[C@H](C(=O)N[C@@H](Cc1ccc(O)cc1)C(=O)N[C@@H](Cc1c[nH]cn1)C(=O)N[C@H](C(=O)N[C@@H](CO)C(=O)N[C@@H](CC(=O)O)C(=O)NCC(=O)N[C@@H](CC(=O)O)C(=O)N[C@@H](C)C(=O)N[C@@H](CC(C)C)C(=O)N[C@@H](CC(C)C)C(=O)N[C@@H](CC(C)C)C(=O)N[C@@H](CC(C)C)C(=O)O)[C@@H](C)O)[C@@H](C)O [CX3C1]	–	–	–	–	–	–	–	740	256	–
CC[C@H](C)[C@H](NC(=O)[C@H](CO)NC(=O)[C@@H](NC(=O)[C@@H](NC(=O)[C@@H]1CCCN1C(=O)[C@H](CC(C)C)NC(=O)[C@H](C)NC(=O)[C@@H]1CCCN1C(=O)[C@H](Cc1ccc(O)cc1)NC(C)=O)[C@@H](C)O)C(C)C)C(=O)N[C@@H](CO)C(=O)N[C@@H](CO)C(=O)N[C@@H](CO)C(=O)N[C@@H](C)C(=O)N[C@@H](CCC(=O)O)C(=O)N[C@H](C(=O)O)C(C)C [DOC10]	2010	718	2020	1460	634	–	698	–	–	–
CC(=O)N[C@@H](Cc1ccc(O)cc1)C(=O)N[C@@H](CC(C)C)C(=O)N[C@@H](Cc1c[nH]cn1)C(=O)NCC(=O)N[C@@H](Cc1c[nH]cn1)C(=O)N[C@@H](CCCNC(=N)N)C(=O)N[C@@H](Cc1ccc(O)cc1)C(=O)N[C@@H](CO)C(=O)N[C@@H](CO)C(=O)NCC(=O)N[C@@H](CO)C(=O)N[C@@H](CCCNC(=N)N)C(=O)N[C@@H](CO)C(=O)N[C@@H](CC(C)C)C(=O)N[C@H](C(=O)O)C(C)C [IQEC3]	673	240	570	660	286	–	197	–	–	–
CC[C@H](C)[C@H](NC(=O)[C@H](CCC(=O)O)NC(=O)[C@@H](NC(=O)[C@H](C)NC(=O)[C@@H](NC(=O)[C@@H](NC(=O)[C@H](CC(=O)O)NC(=O)[C@H](CCC(=O)O)NC(=O)[C@H](Cc1ccc(O)cc1)NC(=O)[C@@H]1CCCN1C(=O)[C@@H](NC(=O)[C@H](CC(=O)O)NC(=O)[C@H](C)NC(=O)CNC(=O)[C@H](Cc1ccc(O)cc1)NC(C)=O)[C@@H](C)CC)[C@@H](C)CC)[C@@H](C)CC)[C@@H](C)O)C(=O)O [LZTS1]	–	–	–	–	–	–	–	1120	388	IC50 (PSG G335A (PSD-95); [5]): 648 µM; Ki (PSG G335A (PSD-95); [5]): 231 µM
CC(=O)N[C@@H](Cc1ccc(O)cc1)C(=O)N[C@@H](CC(=O)O)C(=O)N[C@@H](CCCCN)C(=O)N[C@@H](CCCNC(=N)N)C(=O)N[C@@H](CC(=O)O)C(=O)N[C@@H](CO)C(=O)N[C@@H](CCC(=O)O)C(=O)N[C@@H](CCC(=O)O)C(=O)N[C@@H](CCC(=O)O)C(=O)N[C@@H](CO)C(=O)N[C@@H](CCC(=O)O)C(=O)N[C@@H](CO)C(=O)N[C@H](C(=O)N[C@@H](C)C(=O)N[C@@H](CC(C)C)C(=O)O)[C@@H](C)O [RHG44]	–	–	–	–	–	1210	–	944	327	Ki (PSG G322A (PSD-95); [3]): 526 µM
CC[C@H](C)[C@H](NC(=O)[C@H](Cc1ccccc1)NC(=O)[C@H](Cc1ccc(O)cc1)NC(=O)[C@@H]1CCCN1C(=O)[C@H](CCC(N)=O)NC(=O)[C@H](Cc1ccc(O)cc1)NC(C)=O)C(=O)N[C@H](C(=O)N[C@@H](CC(N)=O)C(=O)N[C@@H](CO)C(=O)N[C@@H](CCCCN)C(=O)N[C@H](C(=O)N[C@@H](CCC(=O)O)C(=O)N[C@H](C(=O)N[C@H](C(=O)N[C@H](C(=O)O)C(C)C)[C@@H](C)O)C(C)C)[C@@H](C)O)[C@@H](C)O [SHSA9]	1130	404	994	756	328	–	344	–	–	–
CC(=O)N[C@@H](Cc1ccc(O)cc1)C(=O)N[C@H](C(=O)N[C@@H](CCC(=O)O)C(=O)N[C@@H](CO)C(=O)N[C@@H](CC(C)C)C(=O)N[C@@H](CO)C(=O)N[C@@H](CO)C(=O)N[C@@H](CCC(=O)O)C(=O)N[C@@H](CO)C(=O)N[C@H](C(=O)N[C@@H](C)C(=O)N[C@H](C(=O)N[C@@H](CO)C(=O)N1CCC[C@H]1C(=O)N[C@H](C(=O)O)C(C)C)[C@@H](C)O)[C@@H](C)O)C(C)C [TNR16]	–	–	880	867	376	–	304	–	–	–
CC(=O)N[C@@H](Cc1ccc(O)cc1)C(=O)N[C@@H](C)C(=O)N1CCC[C@H]1C(=O)N[C@@H](C)C(=O)N[C@H](C(=O)N[C@@H](CO)C(=O)N1CCC[C@H]1C(=O)N1CCC[C@H]1C(=O)N[C@@H](CCC(=O)O)C(=O)N[C@@H](CCCNC(=N)N)C(=O)N[C@@H](C)C(=O)N[C@@H](CC(C)C)C(=O)N[C@@H](CO)C(=O)N[C@@H](CCCCN)C(=O)N[C@@H](CC(C)C)C(=O)O)[C@@H](C)O [TUTLB]	721	257	1810	1730	752	–	625	–	–	–
Ac-YDVVAVYPNAKVELV [PDLI4]	1510	538	881	651	282	–	305	–	–	–
Ac-YEKAASREEPIEWEF [CUX1]	–	–	–	–	–	1560	–	1280	–	IC50 (PSG G335A (PSD-95); [5]): 1360 µM; Ki (PSG G335A (PSD-95); [5]): 485 µM; Ki (PSG G322A (PSD-95); [3]): 679 µM
Ac-YEPPEPKKSRRSVLL [CDC42]	–	–	–	–	–	952	–	1100	381	IC50 (PSG G335A (PSD-95); [5]): 1180 µM; Ki (PSG G335A (PSD-95); [5]): 421 µM
Ac-YERAANREEALEWEF [CUX2]	–	–	–	–	–	701	–	–	351	Ki (PSG G322A (PSD-95); [3]): 304 µM
Ac-YQEQNKVLWIPASPL [DLG5]	1020	365	2830	1510	654	–	979	–	–	–
Ac-YQETLFVGNDQVSEI [TM108]	–	–	1070	–	–	–	370	–	–	–
Ac-YQSGPFIWIPSKEKL [DLG2]	2120	758	734	1420	615	–	254	–	–	–
Ac-YVMQDESFPASKIEL [MAP1B]	–	–	–	–	–	914	–	–	–	Ki (PSG G322A (PSD-95); [3]): 396 µM
Ac-YYETGSLSFAGDERI [SEZ6]	–	–	–	–	–	–	–	1700	590	–
